Entries after “also recorded” stand apart in the source; their conditions may differ.
Assays:
[1] = Release of model drugs from 4% (w/v) alginate pieces; format: physicochemical; conditions: 4% (w/v) alginate pieces 8 mm diameter, 2 mm thick, cross-linked 15 minutes
Description: Drug release was recorded for 4% (w/v) alginate pieces 8 mm in diameter and 2 mm in thickness that were cross-linked for 15 minutes. […] (Sample size of study n=3 per time point).

[2] = Substance P release from alginate bandage sheets in PBS, measured by ELISA; format: physicochemical; conditions: 2% (w/v) and 4% (w/v) bandaging sheets; 8 mm diameter, 2 mm thick sample in 2 mls PBS
Description: The release was performed by placing the bandage sample of 8 mm diameter and 2 mm thickness in 2 mls of PBS and moving it to a new solution at defined time intervals. The release was examined using a commercially available ELISA assay. […] The sheets incorporate either 32 μg or 64 μg of Substance P with a given processing loss (Sample size n=3 per time point). Small molecule compounds (less than 1000 daltons) are typically added to the composition in a volume of 250 μl for a dressing that is about 12 mm in diameter and 2 mm thick. Thus, substance P was added at 128 μg/ml at the low concentration and 256 μg/ml at the higher concentration. Actual clinical doses are the same or similar. Since small molecules may diffuse out of the dressing quickly, it is advantageous for small molecules to have an affinity for the alginate, e.g., since alginate is negatively charged, positively charged small molecule drugs elute at a clinically acceptable and beneficial rate (and consistent with standard practice for changing of wound dressings). For example, substance P is slightly positively charged and is therefore attracted to the alginate. Charge is less or not relevant for larger molecules, e.g., BSA. Generally, the dose is determined based on the therapeutic dose of the drug. For example, VEGF is administered to the dressing at about 50 μg/ml (3 μg in 60 μl of liquid).

Row | loss during wetting step [1] | Molecule | release profile from the alginate dressing material [1] | duration of sustained release of the peptide from the bandage [2]
1 |  | O=C1c2c(O)ccc(O)c2C(=O)c2c(NCCNCCO)ccc(NCCNCCO)c21 [mitoxantrone, Mitoxantrone] | sustained release from the scaffold, which is still ongoing at the termination of the experiment | 
2 | 24% | Cc1cc(-c2ccc(/N=N/c3c(S(=O)(=O)O)cc4cc(S(=O)(=O)O)cc(N)c4c3O)c(C)c2)ccc1/N=N/c1c(S(=O)(=O)O)cc2cc(S(=O)(=O)O)cc(N)c2c1O [trypan blue dye, Trypan blue] | lost very rapidly; also recorded: the majority within one day | 
3 |  | Arg-Pro-Lys-Pro-Gln-Gln-Phe-Phe-Gly-Leu-Met [Substance P] |  | at least 3 days
